This is an account of results in patent publication US20240327460A1, “NORA INHIBITORS AND METHODS OF USE” (priority 2021, published 2024).

The subject of one experiment is MRSA. Type of experiment: cell-based, Staphylococcus aureus. On the procedure:
To test the effects of peptides, overnight cultures of wild-type MRSA and MRSA^ΔnorA in TSB media were diluted 1:1,000 in TSB with varying concentrations of peptides, in the presence or the absence of norfloxacin (12.5 μg/ml). All the peptide concentrations contained equal amount of the DMSO vehicle. OD600nm was measured as a function of time in a BioScreen C device at 37° C. with shaking between measurements every 15 min. Three independent experiments were acquired; reported errors reflect the standard deviation among the independent experiments.

Experiment [1] has as its target T1, NorA (Staphylococcus aureus, UniProt Q5HHX4).
T1 construct: made in house; host or cells: C43 (DE3) E. coli
Briefly: Competitive MST peptide binding experiment (NPI-1 versus labelled Fab36). On the set-up: species or system S. aureus. The following applies: NorA 6 μM, Fab36 40 nM, NPI-1 1.5 nM to 50 μM. The method, then: Competitive peptide binding experiments were performed with MST using fluorescently labelled Fab36 as described above. These experiments used fixed concentrations of NorA in PMAL-C8 amphipol at 6 μM and Fab36 at 40 nM, and a variable concentration of NPI-1 from 1.5 nM to 50 μM. Competitive peptide binding experiments were collected with three replicates.

Experiment [2] has as its target T1, NorA. The experiment is described as follows: Fluorescence polarization (FP) binding of FITC-NPI-1 to NorA. On the set-up: species or system S. aureus. The method, then: Amphipol-purified NorA underwent an additional round of SEC to remove free amphipol. Fluorescence polarization (FP) experiments were performed on a DTX 880 Multimode Detector (Beckman) at 25° C. with excitation and emission wavelengths set to 485 and 525 nm, respectively. For NorA binding assays, increasing concentrations of NorA were added to wells of 15 nM FITC-NPI-1 in 100 μL solutions of 20 mM Tris pH 7.5, 100 mM NaCl, 10% glycerol, 0.1% pluronic acid, and 1.2% DMSO on black, U-shape 96 well plates (BRANDplates). All samples were incubated for 15 min on a shaking plate. FP values as a function of NorA concentration ([L]) were fit using the following quadratic binding equation in GraphPad Prism to obtain the binding affinity (Kd) for FITC-NPI-1 ([P]T).
Ymax and Yoffset are normalization parameters. The reported Kd value and error for FITC-NPI-1 reflects the average and standard deviation among seven independent experiments, each performed in triplicate.
In general terms: Fluorescence polarisation rises when a labelled molecule tumbles more slowly, as on binding a larger partner.

The target of experiment [3] is T1, NorA. Briefly: FP competition binding experiment with norfloxacin. The following applies: NorA 50 nM, FITC-NPI-1 15 nM, norfloxacin 10 nM and 2 mM. On the set-up: species or system S. aureus. On the procedure:
FP competition binding experiments with norfloxacin were performed using FITC-NPI-1 as described above. These experiments used a fixed concentration of NorA in PMAL-C8 amphipol at 50 nM and FITC-NPI-1 at 15 nM with norfloxacin concentrations of 10 nM and 2 mM in 100 μL solutions of 20 mM Tris pH 7.5, 100 mM NaCl, 10% glycerol, 0.1% pluronic acid, and 1.2% DMSO. A control experiment was performed in the same manner but in the absence of NorA. Four independent trials of FP experiments were performed, each in triplicate.

For another experiment, the system named is MRSA and MRSA^ΔnorA. The experiment is described as follows: Bacteriostatic/bactericidal effect of norfloxacin on MRSA (CFU). Type of experiment: cell-based, Staphylococcus aureus. The following applies: norfloxacin 0, 12.5 or 25 μg/ml; 1, 2, 4 hr. On the procedure: MRSA or MRSA^ΔnorA were cultured overnight in 5 ml TSB and diluted 1:1,000 with TSB the next morning. In a round-bottom 96-well plate, 50 μl of the diluted culture was mixed with 50 μl of TSB supplemented with norfloxacin. The final concentration of MRSA or MRSA^ΔnorA was ˜1×10^6 CFU/ml and norfloxacin was 0, 12.5, or 25 μg/ml. The plate was incubated while shaking at 37° C. At 0 hr and after 1, 2, or 4 hr of incubation, CFUs of MRSA or MRSA^ΔnorA were enumerated by serially diluting in PBS and spot plating on TSA plates.

Another experiment concerns MRSA^ΔnorA. Briefly: Norfloxacin MIC assays in MRSA (MIC test strips). Type of experiment: cell-based, Staphylococcus aureus. To be noted: MRSA^ΔnorA expressing wild-type NorA relative to MRSA^ΔnorA alone. The method, then: Wild-type USA300 strain JE2 (“MRSA”) (Fey et al., “A Genetic Resource for Rapid and Comprehensive Phenotype Screening of Nonessential Staphylococcus aureus Genes,” Mbio 4:e00537-00512 (2013), which is hereby incorporated by reference in its entirety) and isogenic strains, norA::bursa (MRSA^ΔnorA) containing empty vector, or hemin-inducible NorA variants were grown overnight at 37° C. in TSB media supplemented with 10 μg/ml chloramphenicol and 1 μM hemin. The cultures were diluted to approximately 1×10^8 CFU/ml and evenly spread on TSA plates supplemented with 5 μg/ml chloramphenicol and 1 μM hemin. The norfloxacin MIC test strips (Liofilchem) were placed in the center of the plate and the plates were incubated for 24 hr at 37° C. The MIC values were read at the intersection of the inhibition eclipse and the strip. At least two independent MIC experiments were acquired for each sample; reported errors reflect the standard deviation among independent experiments.

T1 sequence (Q5HHX4 whole entry): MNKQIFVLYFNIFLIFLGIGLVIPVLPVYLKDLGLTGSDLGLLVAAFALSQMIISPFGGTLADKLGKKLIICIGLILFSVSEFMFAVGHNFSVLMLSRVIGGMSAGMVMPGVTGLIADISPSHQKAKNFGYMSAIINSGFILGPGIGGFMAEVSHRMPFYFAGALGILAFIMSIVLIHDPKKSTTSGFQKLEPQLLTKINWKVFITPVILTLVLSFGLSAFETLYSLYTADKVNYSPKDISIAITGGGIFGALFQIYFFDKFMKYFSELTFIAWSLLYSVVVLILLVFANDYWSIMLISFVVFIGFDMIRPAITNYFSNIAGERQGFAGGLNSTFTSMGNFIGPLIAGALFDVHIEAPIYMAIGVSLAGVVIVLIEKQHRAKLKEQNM

On to “H-YYYYAWRVGGYWR-NH2 [NPI-1, NH2-YYYYAWRVGGYWR-CONH2]”, for which the IC50 (in general, the point on the concentration scale where inhibition reaches its midpoint) in the experiment on MRSA (in the presence of 12.5 μg/ml norfloxacin, 10 hr timepoint, read-out: IC50 growth inhibition of MRSA) turned out to be 720 ± 80 nM. In the experiment with MRSA (peptide alone, no norfloxacin), the “growth of MRSA in the absence of norfloxacin” value is “did not inhibit the growth of MRSA”. In addition, on NorA [1], the “displacement of bound Fab36 from NorA” value is “could displace bound Fab36 from NorA”. On NorA [2], the affinity, expressed as Kd, was 10 ± 5 nM. For the same compound, on NorA [2] (NPI-1 relative to Fab36), the “greater affinity to NorA” value is approximately 14 fold.
Take `CCn1cc(C(=O)O)c(=O)c2cc(F)c(N3CCNCC3)cc21` [norfloxacin]: the “competition with NPI-1 binding to NorA” value on NorA [3] is on record as “compete with NPI-1 binding to NorA”. In the experiment on MRSA and MRSA^ΔnorA, the “effect on the growth of MRSA and MRSA^ΔnorA” value was “bacteriostatic effect”. Also, the “greater norfloxacin MIC” value with MRSA^ΔnorA was determined as 20 fold.
